# In PubChem BioAssay (NCI):
#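 Values below derive from 48-hour exposures of cells grown in 96-well plates, with endpoints linearly interpolated between the two concentrations bracketing the appropriate inhibition level. TGI is the concentration that stops growth completely.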
# What was measured:
# Test in all cases: inhibition of tumour cell growth, NCI panel, 48 h
# [1] = system: DU-145 prostate
# [2] = system: MOLT-4 leukemia
# [3] = system: SNB-19 CNS
# [4] = system: 786-0 renal
# [5] = system: BT-549 breast
# [6] = system: SNB-75 CNS
# [7] = system: LOX IMVI melanoma
# [8] = system: IGROV1 ovarian
# [9] = system: UACC-257 melanoma
# [10] = system: U251 CNS
# [11] = system: CCRF-CEM leukemia
# [12] = system: NCI/ADR-RES ovarian
# [13] = system: NCI-H522 lung
# [14] = system: MDA-N
# [15] = system: UO-31 renal
# [16] = system: SK-MEL-2 melanoma
# [17] = system: ACHN renal
# [18] = system: MDA-MB-435
# [19] = system: OVCAR-5 ovarian
# [20] = system: RXF 393 renal
# [21] = system: A498 renal
# [22] = system: SW-620 colon
# [23] = system: HL-60(TB) leukemia
# [24] = system: TK-10 renal
# [25] = system: UACC-62 melanoma
# [26] = system: HT29 colon
# [27] = system: HCT-116 colon
# [28] = system: OVCAR-8 ovarian
# [29] = system: RPMI-8226 leukemia
# [30] = system: HOP-92 NSCLC
# [31] = system: MALME-3M melanoma
# [32] = system: HCT-15 colon
# [33] = system: EKVX NSCLC
# [34] = system: SF-295 CNS
# [35] = system: K-562 leukemia
# [36] = system: NCI-H23 lung
# [37] = system: HS 578T breast
# [38] = system: COLO 205 colon
# [39] = system: NCI-H460 lung
# [40] = system: HOP-62 NSCLC
# [41] = system: MDA-MB-231 breast
# [42] = system: KM12 colon
# [43] = system: PC-3 prostate
# [44] = system: OVCAR-4 ovarian
# [45] = system: SK-MEL-5 melanoma
# [46] = system: CAKI-1 renal
# [47] = system: NCI-H226 lung
# [48] = system: HCC-2998 colon
# [49] = system: SR leukemia
# [50] = system: SN12C renal
# [51] = system: SK-MEL-28 melanoma
# [52] = system: SK-OV-3 ovarian
# [53] = system: OVCAR-3 ovarian
# [54] = system: SF-268 CNS
# [55] = system: T-47D breast
# [56] = system: SF-539 CNS
# [57] = system: MCF7 breast
# [58] = system: M14 melanoma
# [59] = system: A549 NSCLC
compound,measurement,setting,value
CCOC(=O)C1(Cc2ccc(C)cc2)Cc2ccc(C)cc2C1=O (centres undefined),TGI,[1],> 100 µM
same,TGI,[2],27.7 µM
same,TGI,[3],> 100 µM
same,TGI,[4],> 100 µM
same,TGI,[5],80.8 µM
same,TGI,[6],> 100 µM
same,TGI,[7],> 65 µM
same,TGI,[8],> 100 µM
same,TGI,[9],98.2 µM
same,TGI,[10],35.6 µM
same,TGI,[11],64.1 µM
same,TGI,[12],32.5 µM
same,TGI,[13],36.9 µM
same,TGI,[14],6.42 µM
same,TGI,[15],> 100 µM
same,TGI,[16],32.9 µM
same,TGI,[17],> 100 µM
same,TGI,[18],12.2 µM
same,TGI,[19],> 100 µM
same,TGI,[20],29.5 µM
same,TGI,[21],> 79.1 µM
same,TGI,[22],> 100 µM
same,TGI,[23],23.6 µM
same,TGI,[24],> 100 µM
same,TGI,[25],> 100 µM
same,TGI,[26],49.1 µM
same,TGI,[27],> 60.2 µM
same,TGI,[28],> 96.6 µM
same,TGI,[29],64.2 µM
same,TGI,[30],> 100 µM
same,TGI,[31],> 97.1 µM
same,TGI,[32],> 100 µM
same,TGI,[33],> 100 µM
same,TGI,[34],> 86.5 µM
same,TGI,[35],> 41.4 µM
same,TGI,[36],> 94.7 µM
same,TGI,[37],> 100 µM
same,TGI,[38],> 78.7 µM
same,TGI,[39],82.4 µM
same,TGI,[40],> 100 µM
same,TGI,[41],> 100 µM
same,TGI,[42],> 72.3 µM
same,TGI,[43],> 100 µM
same,TGI,[44],> 100 µM
same,TGI,[45],20.8 µM
same,TGI,[46],> 100 µM
same,TGI,[47],> 92.4 µM
same,TGI,[48],> 92.7 µM
same,TGI,[49],68.8 µM
same,TGI,[50],> 100 µM
same,TGI,[51],> 100 µM
same,TGI,[52],> 100 µM
same,TGI,[53],> 100 µM
same,TGI,[54],> 100 µM
same,TGI,[55],> 74.6 µM
same,TGI,[56],58.5 µM
same,TGI,[57],28.3 µM
same,TGI,[58],47.3 µM
same,TGI,[59],> 100 µM
